In the supplement of paper PMC10307832:

Experiments:
Test in all cases: relative viability (nuclei count vs DMSO), 5 days (fraction); higher = more cells survive
Ruboxistaurin = compound: CN(C)C[C@@H]1CCn2cc(c3ccccc32)C2=C(C(=O)NC2=O)c2cn(c3ccccc23)CCO1 [Ruboxistaurin]
Procedure, shortened: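 In 1536-well plates, lung cancer cell lines rested overnight at 37 °C before five library-drug doses (not always all listed), √10 apart, were pinned onto vehicle-anchored plates. Nuclei were counted with MetaXpress from 4× Hoechst images taken after 5 days without medium change. Viability compares treated-well with vehicle-well nuclei as a median over plates, and plates needed control CV below 25% plus at least one doubling to pass.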

[1] = compound: CN(C)C[C@@H]1CCn2cc(c3ccccc32)C2=C(C(=O)NC2=O)c2cn(c3ccccc23)CCO1 [Ruboxistaurin] + CC(C)C[C@H](NC(=O)[C@H](Cc1ccccc1)NC(=O)c1cnccn1)B(O)O [Bortezomib] (partner 0.002 µM)
Procedure, shortened: (§1)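 A single step with final 0.05% Triton X-100, 1% formaldehyde and 1 ug/ml Hoechst fixed the cells and stained nuclei 5 days after treatment. Lung cancer cell lines in 1536-well plates had been treated by pin tool the day after seeding with one drug alone or a fixed anchor-drug dose plus five library-drug doses (not always all listed) in √10 steps, and nuclei were counted on 4× images. Relative viability is the ratio of nuclei in treated wells to nuclei in vehicle wells, taken as the median of duplicate plates.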

[2] = compound: CN(C)C[C@@H]1CCn2cc(c3ccccc32)C2=C(C(=O)NC2=O)c2cn(c3ccccc23)CCO1 [Ruboxistaurin] + CC1(C)CCC(c2ccc(Cl)cc2)=C(CN2CCN(c3ccc(C(=O)NS(=O)(=O)c4ccc(N[C@H](CCN5CCOCC5)CSc5ccccc5)c(S(=O)(=O)C(F)(F)F)c4)cc3)CC2)C1 [Navitoclax] (partner 0.5 µM)
Procedure, shortened: as §1

[3] = compound: CN(C)C[C@@H]1CCn2cc(c3ccccc32)C2=C(C(=O)NC2=O)c2cn(c3ccccc23)CCO1 [Ruboxistaurin] + COc1cc2c(Oc3ccc(NC(=O)C4(C(=O)Nc5ccc(F)cc5)CC4)cc3F)ccnc2cc1OCCCN1CCOCC1 [Foretinib] (partner 0.25 µM)
Procedure, shortened: as §1

[4] = compound: CN(C)C[C@@H]1CCn2cc(c3ccccc32)C2=C(C(=O)NC2=O)c2cn(c3ccccc23)CCO1 [Ruboxistaurin] + CS(=O)(=O)CCNCc1ccc(-c2ccc3ncnc(Nc4ccc(OCc5cccc(F)c5)c(Cl)c4)c3c2)o1 [Lapatinib] (partner 2 µM)
Procedure, shortened: as §1

[5] = compound: CN(C)C[C@@H]1CCn2cc(c3ccccc32)C2=C(C(=O)NC2=O)c2cn(c3ccccc23)CCO1 [Ruboxistaurin] + CS(=O)(=O)N1CCN(Cc2cc3nc(-c4cccc5[nH]ncc45)nc(N4CCOCC4)c3s2)CC1 [Pictilisib] (partner 1 µM)
Procedure, shortened: as §1

[6] = compound: CN(C)C[C@@H]1CCn2cc(c3ccccc32)C2=C(C(=O)NC2=O)c2cn(c3ccccc23)CCO1 [Ruboxistaurin] + C[C@@H](Oc1cc(-c2cnn(C3CCNCC3)c2)cnc1N)c1c(Cl)ccc(F)c1Cl [Crizotinib] (partner 1 µM)
Procedure, shortened: as §1

[7] = compound: CN(C)C[C@@H]1CCn2cc(c3ccccc32)C2=C(C(=O)NC2=O)c2cn(c3ccccc23)CCO1 [Ruboxistaurin] + C[C@]1(O)C[C@@H](c2nc(-c3ccc4ccc(-c5ccccc5)nc4c3)c3c(N)nccn32)C1 [Linsitinib] (partner 1 µM)
Procedure, shortened: as §1

[8] = compound: CN(C)C[C@@H]1CCn2cc(c3ccccc32)C2=C(C(=O)NC2=O)c2cn(c3ccccc23)CCO1 [Ruboxistaurin] + Cc1nc(NC(=O)N2CCC[C@H]2C(N)=O)sc1-c1ccnc(C(C)(C)C(F)(F)F)c1 [Alpelisib] (partner 2 µM)
Procedure, shortened: as §1

Ruboxistaurin + Olaparib = compound: CN(C)C[C@@H]1CCn2cc(c3ccccc32)C2=C(C(=O)NC2=O)c2cn(c3ccccc23)CCO1 [Ruboxistaurin] + O=C(c1cc(Cc2n[nH]c(=O)c3ccccc23)ccc1F)N1CCN(C(=O)C2CC2)CC1 [Olaparib] (partner 8 µM)
Procedure, shortened: as §1

Row | Cell Line | relative viability (Ruboxistaurin; 0.08 µM) | relative viability (Ruboxistaurin; 0.8 µM) | relative viability (Ruboxistaurin; 2.53 µM) | relative viability (Ruboxistaurin; 8 µM) | relative viability ([1]; first compound 0.08 µM) | relative viability ([1]; first compound 0.8 µM) | relative viability ([1]; first compound 2.53 µM) | relative viability ([1]; first compound 8 µM) | relative viability ([2]; first compound 0.08 µM) | relative viability ([2]; first compound 0.8 µM) | relative viability ([2]; first compound 2.53 µM) | relative viability ([2]; first compound 8 µM) | relative viability ([3]; first compound 0.08 µM) | relative viability ([3]; first compound 0.8 µM) | relative viability ([3]; first compound 2.53 µM) | relative viability ([3]; first compound 8 µM) | relative viability ([4]; first compound 0.08 µM) | relative viability ([4]; first compound 0.8 µM) | relative viability ([4]; first compound 2.53 µM) | relative viability ([4]; first compound 8 µM) | relative viability ([5]; first compound 0.08 µM) | relative viability ([5]; first compound 0.8 µM) | relative viability ([5]; first compound 2.53 µM) | relative viability ([5]; first compound 8 µM) | relative viability ([6]; first compound 0.08 µM) | relative viability ([6]; first compound 0.8 µM) | relative viability ([6]; first compound 2.53 µM) | relative viability ([6]; first compound 8 µM) | relative viability ([7]; first compound 0.08 µM) | relative viability ([7]; first compound 0.8 µM) | relative viability ([7]; first compound 2.53 µM) | relative viability ([7]; first compound 8 µM) | relative viability ([8]; first compound 0.08 µM) | relative viability ([8]; first compound 0.8 µM) | relative viability ([8]; first compound 2.53 µM) | relative viability ([8]; first compound 8 µM) | relative viability (Ruboxistaurin + Olaparib; first compound 0.08 µM) | relative viability (Ruboxistaurin + Olaparib; first compound 0.8 µM) | relative viability (Ruboxistaurin + Olaparib; first compound 2.53 µM) | relative viability (Ruboxistaurin + Olaparib; first compound 8 µM)
1 | Calu-6 | 1.07 | 0.951 | 1.06 | 0.982 | 1.12 | 0.948 | 1.1 | 1.17 | 0.967 | 0.776 | 0.862 | 1.01 | 0.949 | 0.848 | 0.93 | 0.893 | 1.15 | 1.02 | 1.08 | 0.933 | 0.94 | 0.848 | 0.795 | 0.607 | 0.899 | 0.697 | 0.807 | 0.822 | 0.978 | 0.804 | 0.913 | 0.942 | 0.95 | 0.897 | 0.981 | 0.809 | 0.635 | 0.564 | 0.669 | 0.585
2 | EBC-1 | 1.13 | 0.96 | 0.97 | 0.932 | 0.587 | 0.5 | 0.437 | 0.454 | 0.527 | 0.308 | 0.381 | 0.358 | 0.102 | 0.118 | 0.121 | 0.102 | 0.215 | 0.216 | 0.2 | 0.201 | 0.372 | 0.278 | 0.296 | 0.215 | 0.19 | 0.198 | 0.17 | 0.167 | 1.02 | 0.691 | 0.89 | 1.04 | 0.82 | 0.692 | 0.741 | 0.706 | 0.763 | 0.558 | 0.663 | 0.447
